Reference: the NIST ThermoML archive (doi:10.1021/je049814b)

Settings: Liquid, Coaxial cylinder method

O [water]
thermal conductivity [W/m/K]
Settings	290.6 K	329.7 K	367.1 K	395.1 K	440.7 K	484.2 K	514.2 K	549.8 K	575.4 K
1000 kPa	0.592	0.649	0.679	0.683	–	–	–	–	–
10000 kPa	0.602	0.655	0.684	0.692	0.683	0.66	0.638	0.587	0.54
40000 kPa	0.613	0.665	0.697	0.709	0.703	0.684	0.662	0.628	0.594
